According to patent US6271342A, “Sugar-modified cytostatics” (Bayer Aktiengesellschaft, priority 1995, dated 2001):
Read-outs that look alike come from different tables or passages of the source.

Columns and labels:
HT 29 = test: Growth inhibition test (MTT) for cytotoxic properties; assay type: cell-based, human
In short: (§1)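 IC50 values come from an MTT read at 540 nm (5 h at 37 °C, 5 mg/ml MTT stock), taken on day 3 and day 6. Cells (HT 29, SW 480; 50,000 cells/ml in RPMI/10% FCS) were pre-cultured 1 day, then compound in DMSO was added.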

SW 480 = test: as above; assay type: cell-based, human
In short: as §1

B 16 F 10 = test: as above; assay type: cell-based, mouse; details: Table 1b
In short: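 Cells in RPMI 1640 with 10% FCS pre-cultured 1 day at 37° C, then exposed to test substances in DMSO; growth checked after day 3 and day 6. Read-out by MTT, 5 h incubation, isopropanol solubilization, extinction at 540 nm.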

[1] = system: bone marrow parent cells of the mouse; test: CSF-induced proliferation of bone marrow parent cells, in vitro; assay type: cell-based; details: recombinant murine GM-CSF, 7 days
Procedure: Bone marrow cells are flushed out of the femur of mice. 10^5 cells are incubated in McCoy SA medium (0.3% agar) together with recombinant murine GM-CSF (Genzyme; parent cell colony formation) and the substances (10^-4 to 100 μg/ml) at 37° C. and 7% CO2. 7 days later, the colonies ([…]) and clusters (17-50 cells) are counted.

hepatoma [2] = test: Cleavage kinetics with cells (HPLC); details: Table 2a; 37° C.; * = cleavage product is N-[D-alanyl]-batracyline
Procedure: Cleavage Kinetics With Cells
(§2) 2.25 ml of PBS are incubated together with 225 μl of a cell suspension (30 mg/ml) and 25 μl of substrate stock solution (1 mg/ml in 3% dimethyl sulphoxide in PBS) at 37° C. After 1 hour and 24 hours, samples of in each case 1 ml are taken, mixed with 1 ml of ethanol and left to stand at 4° C. for 20 minutes. After centrifugation (5 minutes at 3500 rpm), 100 μl of supernatant are taken for the HPLC analysis.

[3] = Acute toxicity, single administration; assay type: in vivo, nu/nu naked mice; details: for acute toxicity detected: dose of 400 mg/kg; for acute toxicity detected / individual dose of the substances which can be tolerated: single administration; for Individual dose tolerated in mg/kg of mouse, i.v.: aqueous solution; for Individual dose tolerated in mg/kg of mouse, i.p.: single administration i.p., solution in dimethyl sulphoxide
Procedure: Determination of the Acute Toxicity of Glycoconjugates of Batracyline (Single Administration)
The acute toxicity of the batracyline derivatives was determined on nu/nu naked mice.
The substances administered i.v., as aqueous solutions, and the substances administered i.p., as solutions in dimethyl sulphoxide, were injected once in concentrations of up to 400 mg of substance per kg of mouse.
The individual dose tolerated was calculated from the decrease in the weight of the animals up to 21 days after administration and from the number of animals surviving.

SW-480 [4] = test: Cleavage kinetics with cells (HPLC); details: Table 2a; 37° C.; * = cleavage product is N-[D-alanyl]-batracyline
Procedure: Cleavage Kinetics With Cells
as §2

SW-480 [5] = system: SW-480
Procedure: Cleavage Kinetics With Cells
as §2

hepatoma [6] = system: hepatoma
Procedure: Cleavage Kinetics With Cells
as §2

[7] = Cleavage kinetics with human blood (HPLC); assay type: in vitro ADME; details: 37° C.
From the text: In Vitro Investigation of the Cleavability of the Glycoconjugates
Cleavage Kinetics With Human Blood

[8] = Table 1a, glycoconjugates of batracyline
[9] = Table 2a, * = cleavage product is N-[D-alanyl]-batracyline

Compound: COC1C(O)C(C)OC(Oc2ccc(NC(=S)NC(CCCCN)C(=O)NC3C=CC(C)C4CN(c5cc6c(cc5F)c(=O)c(C(=O)O)c5scc(C)n56)CC34)cc2)C1O.Cl (mixture of isomers) [Example 14.4, N-{N^α -[O-(3-O-Methyl-β-L-fucopyranosyl)-4-hydroxy-phenylamino-thiocarbonyl]-D-lysyl}-quinolone-c, hydrochloride]
- IC50 (HT 29; Table 1b): 1 µM
- IC50 (SW 480; Table 1b): 1.5 µM
- IC50 (B 16 F 10): 0.4 µM
- IC50 [μg/ml] CSF-induced proliferation of bone marrow parent cells of the mouse [1]: 3.6 µg/mL

Compound: CC(NC(=O)C(CCCCNC(=S)Nc1ccc(OC2OC(C)C(O)C(OCC(=O)[O-])C2O)cc1)NC(=S)Nc1ccc(OC2OC(C)C(O)C(OCC(=O)[O-])C2O)cc1)C(=O)Nc1ccc2nc3n(c(=O)c2c1)Cc1ccccc1-3.[Na+].[Na+] [Example 6.12, N-{N^α,N^ε -Bis-[O-(3-O-carboxymethyl-β-L-fucosyl)-4-hydroxy-phenylamino-thiocarbonyl]-lysyl-D-alanyl}-batracyline, di-sodium salt]
- % cleavage in hepatoma 1 hour (hepatoma [2]): 0%
- % cleavage in hepatoma 24 hours (hepatoma [2]): 0%
- IC50 (HT 29; [8]): 50 µM
- IC50 (SW 480; [8]): 35 µM
- acute toxicity detected [3]: no acute toxicity
- individual dose of the substances which can be tolerated [3]: more than 200 mg of substance per kg of mouse
- Individual dose tolerated in mg/kg of mouse, i.v. ([3]; single administration i.v.): > 400 mg/kg of mouse
- % cleavage in SW-480 1 hour (SW-480 [4]): 0%
- % cleavage in SW-480 24 hours (SW-480 [4]): 0%

Compound: CC(NC(=O)C(CO)NC(=S)Nc1ccc(OC2OC(C)C(O)C(O)C2O)cc1)C(=O)Nc1ccc2c(c1)Cn1c-2nc2ccccc2c1=O [Example 7.3, N-{N-[O-(β-L-Fucosyl)-4-hydroxy-phenylamino-thiocarbonyl]-seryl-D-alanyl]-batracyline]
- % cleavage in SW-480 1 hour (SW-480 [5]): 0%
- % cleavage in SW-480 24 hours (SW-480 [5]): 0%
- IC50 (SW 480; [8]): 50 µM
- % cleavage in hepatoma 1 hour (hepatoma [6]): 0%
- % cleavage in hepatoma 24 hours (hepatoma [6]): 0%
- % cleavage in human blood 1 hour [7, 9]: 0%
- % cleavage in human blood 24 hours [7, 9]: 0%

Compound: CO[C@H]1[C@H](O)[C@@H](Oc2ccc(NC(=S)NCCCC[C@H](NC(=S)Nc3ccc(O[C@H]4O[C@@H](C)[C@@H](O)[C@@H](OC)[C@@H]4O)cc3)C(=O)N[C@@H](C)C(=O)NC3C=CCC4CN(c5c(F)cc6c(=O)c(C(=O)O)cn(C7CC7)c6c5Cl)CC43)cc2)O[C@@H](C)[C@H]1O (stereo partly drawn) [Example 11.2, N-{N^α,N^ε -Bis-[O-(3-O-methyl-β-L-fucosyl)-4-hydroxy-phenylamino-thiocarbonyl]-lysyl-alanyl}-quinolone-a]
- % cleavage in SW-480 1 hour (SW-480 [5]): 0%
- % cleavage in SW-480 24 hours (SW-480 [5]): 0%
- IC50 (SW 480; Table 1b): 30 µM
- % cleavage in hepatoma 1 hour (hepatoma [6]): 0%
- % cleavage in hepatoma 24 hours (hepatoma [6]): 0%
- IC50 (B 16 F 10): 9 µM
- IC50 [μg/ml] CSF-induced proliferation of bone marrow parent cells of the mouse [1]: 22.5 µg/mL
- % cleavage in human blood 1 hour ([7]; Table 2b): 0%
- % cleavage in human blood 24 hours ([7]; Table 2b): 0%

Compound: CO[C@H]1[C@H](O)[C@@H](Oc2ccc(NC(=S)NCCCC[C@H](NC(=S)Nc3ccc(O[C@H]4O[C@@H](C)[C@@H](O)[C@@H](OC)[C@@H]4O)cc3)C(=O)NC3C=CCC4CN(c5c(F)cc6c(=O)c(C(=O)O)cn(C7CC7)c6c5Cl)CC43)cc2)O[C@@H](C)[C@H]1O (stereo partly drawn) [Example 11.6, N-{N^α,N^ε -Bis-[O-(3-O-methyl-β-L-fucosyl)-4-hydroxy-phenylamino-thiocarbonyl]-lysyl}-quinolone-a]
- % cleavage in SW-480 1 hour (SW-480 [5]): 0%
- % cleavage in SW-480 24 hours (SW-480 [5]): 8%
- IC50 (HT 29; Table 1b): 9 µM
- IC50 (SW 480; Table 1b): 8 µM
- % cleavage in hepatoma 1 hour (hepatoma [6]): 0%
- % cleavage in hepatoma 24 hours (hepatoma [6]): 12%
- IC50 (B 16 F 10): 5 µM
- % cleavage in human blood 1 hour ([7]; Table 2b): 0%
- % cleavage in human blood 24 hours ([7]; Table 2b): 11%

Compound: N-{N^α -[O-(3-O-Carboxymethyl-β-L-fucosyl)-4-hydroxyphenylaminothiocarbonyl] -N^α -[acetyl]-lysyl-D-alanyl batracyline [Example 5.9]
- % cleavage in SW-480 1 hour (SW-480 [5]): 0%
- % cleavage in SW-480 24 hours (SW-480 [5]): 0%
- IC50 (HT 29; [8]): 70 µM
- IC50 (SW 480; [8]): 70 µM
- % cleavage in hepatoma 1 hour (hepatoma [6]): 0%
- % cleavage in hepatoma 24 hours (hepatoma [6]): 0%
- % cleavage in human blood 1 hour [7, 9]: 0%
- % cleavage in human blood 24 hours [7, 9]: 0%

Compound: N-{N^α -[O-(4-O-Methyl-β-L-fucosyl)-4-hydroxy-phenylamino-thiocarbonyl]-lysy l-D-alanyl}-batracyline [Example 4.4]
- % cleavage in SW-480 1 hour (SW-480 [5]): 0%
- % cleavage in SW-480 24 hours (SW-480 [5]): 0%
- IC50 (HT 29; [8]): 25 µM
- IC50 (SW 480; [8]): 30 µM
- % cleavage in hepatoma 1 hour (hepatoma [6]): 0%
- % cleavage in hepatoma 24 hours (hepatoma [6]): 0%
- % cleavage in human blood 1 hour [7, 9]: 0%
- % cleavage in human blood 24 hours [7, 9]: 0%

Compound: N-{N^α,N^ε -Bis-[O-(3-O-methyl-β-L-fucosyl)-4-hydroxy-phenylamino-thiocarbonyl]- lysyl-D-alanyl}-batracyline [Example 6.2]
- % cleavage in hepatoma 1 hour (hepatoma [2]): 0%
- % cleavage in hepatoma 24 hours (hepatoma [2]): 0%
- IC50 (HT 29; [8]): 50 µM
- IC50 (SW 480; [8]): 40 µM
- acute toxicity detected [3]: no acute toxicity
- individual dose of the substances which can be tolerated [3]: more than 200 mg of substance per kg of mouse
- Individual dose tolerated in mg/kg of mouse, i.p. [3]: > 400 mg/kg of mouse
- % cleavage in SW-480 1 hour (SW-480 [4]): 0%
- % cleavage in SW-480 24 hours (SW-480 [4]): 0%

Compound: N-{N^ε -[O-(3-O-Carboxymethyl-β-L-fucosyl)-4-hydroxy-phenylamino-thiocarbony l]-lysyl-D-alanyl}-batracyline, sodium salt [Example 3.9]
- % cleavage in hepatoma 1 hour (hepatoma [2]): 32%
- % cleavage in hepatoma 24 hours (hepatoma [2]): 100%
- IC50 (HT 29; [8]): 55 µM
- IC50 (SW 480; [8]): 40 µM
- individual dose of the substances which can be tolerated [3]: more than 200 mg of substance per kg of mouse
- Individual dose tolerated in mg/kg of mouse, i.p. [3]: 200 mg/kg of mouse
- Individual dose tolerated in mg/kg of mouse, i.v. ([3]; single administration i.v.): 200 mg/kg of mouse
- % cleavage in human blood 1 hour [7, 9]: 0%
- % cleavage in human blood 24 hours [7, 9]: 54%
- % cleavage in SW-480 1 hour (SW-480 [4]): 28%
- % cleavage in SW-480 24 hours (SW-480 [4]): 100%

Compound: N-{N^ε -[O-(3-O-Methyl-β-L-fucosyl)-4-hydroxy-phenylamino-thiocarbonyl]-lysy l-D-alanyl}-batracyline, trifluoroacetate [Example 3.4]
- % cleavage in hepatoma 1 hour (hepatoma [2]): 98%
- IC50 (HT 29; [8]): 65 µM
- IC50 (SW 480; [8]): 100 µM
- Individual dose tolerated in mg/kg of mouse, i.p. [3]: 200 mg/kg of mouse
- animals died ([3]; single administration i.v.): 2
- Individual dose tolerated in mg/kg of mouse, i.v. ([3]; single administration i.v.): < 100 mg/kg of mouse
- % cleavage in SW-480 1 hour (SW-480 [4]): 74%
